Experimental data reported in ChEMBL document CHEMBL5154693, “N-Methylpropargylamine-Conjugated Hydroxamic Acids as Dual Inhibitors of Monoamine Oxidase A and Histone Deacetylase for Glioma Treatment” (J Med Chem, 2022).
Activity calls are given as the source filed them. No cut-off for these calls is given here.

Assays:
[1] = Toxicity in mouse bearing intracranial tumor assessed as median survival time at 10 mg/kg, ip for 10 days (Rvb= 13.8 days); format: organism-based; details: in vivo, 240 h, time 10 day
[2] = Cytotoxicity against mouse GL26 cells assessed as inhibition of cell growth incubated for 48 hrs by MTT assay; format: functional, cell-based; details: GL26, 48 h
[3] = Toxicity in mouse bearing intracranial tumor assessed as assessed as median survival time at 10 mg/kg, ip treatment started at 7 dpi (Rvb=18.25 days); format: organism-based; details: in vivo, 438 h
U-251 [4] = experiment: cells; format: functional, cell-based; details: Homo sapiens, U-251, 48 h
Description: Cytotoxicity against human TMZ-sensitive U251 cells assessed as inhibition of cell growth incubated for 48 hrs by MTT assay

[5] = Toxicity in mouse bearing intracranial tumor assessed as median survival time at 10 mg/kg, ip in presence of SAHA for 10 days (Rvb=13.8 days); format: organism-based; details: in vivo, 240 h, time 10 day
[6] = target: T1, Amine oxidase [flavin-containing] B (Mus musculus, UniProt Q8BW75); experiment: Inhibition of wild type MAO-B in mouse brain using methyl ester luciferin as substrate at 1 uM pre-incubated for 15 mins followed by substrate addition measured after 1 hr by MAO-Glo assay relative to control; format: tissue-based
T1 sequence (Q8BW75 whole entry): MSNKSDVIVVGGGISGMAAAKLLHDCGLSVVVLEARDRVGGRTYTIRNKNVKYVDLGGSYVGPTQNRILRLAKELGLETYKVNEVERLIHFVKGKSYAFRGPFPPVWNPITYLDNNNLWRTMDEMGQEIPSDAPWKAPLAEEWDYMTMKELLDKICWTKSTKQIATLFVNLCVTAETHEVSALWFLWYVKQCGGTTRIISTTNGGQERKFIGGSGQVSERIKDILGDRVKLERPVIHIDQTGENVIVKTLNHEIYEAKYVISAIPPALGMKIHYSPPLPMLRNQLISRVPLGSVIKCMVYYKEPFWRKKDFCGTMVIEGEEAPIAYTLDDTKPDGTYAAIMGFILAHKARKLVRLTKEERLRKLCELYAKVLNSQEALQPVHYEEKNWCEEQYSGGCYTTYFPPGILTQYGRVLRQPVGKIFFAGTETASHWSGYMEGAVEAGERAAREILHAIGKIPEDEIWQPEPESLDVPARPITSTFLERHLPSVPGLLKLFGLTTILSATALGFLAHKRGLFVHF

[7] = Toxicity in mouse bearing intracranial tumor assessed as median survival time at 5 mg/kg, ip in presence of SAHA for 10 days (Rvb=13.8 days); format: organism-based; details: in vivo, 240 h, time 10 day
Mus musculus [8] = experiment: In vivo inhibition of MAO-A in mouse xenografted with mouse GL26 assessed as decrease in MAO activity in tumor at 10 mg/kg by radiometric analysis; format: functional, organism-based
[9] = Toxicity in mouse bearing intracranial tumor assessed as last day of survival at 10 mg/kg, ip in presence of SAHA for 10 days (Rvb=16 days); format: organism-based; details: in vivo, 240 h, time 10 day
[10] = Toxicity in mouse bearing intracranial tumor assessed as assessed as […] at 10 mg/kg, ip for 14 days treatment started at 5 days post-infection (Rvb=14 days); format: organism-based; details: in vivo, 336 h, time 14 day
[11] = Toxicity in mouse bearing intracranial tumor assessed as last day of survival at 10 mg/kg, ip treatment started at 7 dpi (Rvb=19 days); format: organism-based; details: in vivo, 456 h
[12] = Toxicity in mouse bearing intracranial tumor assessed as assessed as median survival time at 10 mg/kg, ip for 14 days treatment started at 5 days post-infection (Rvb=12.8 days); format: organism-based; details: in vivo, 336 h, time 14 day
[13] = Toxicity in mouse bearing intracranial tumor assessed as last day of survival at 10 mg/kg,ip for 10 days (Rvb=16 days); format: organism-based; details: in vivo, 240 h, time 10 day
U-251 [14] = experiment: cells; format: functional, cell-based; details: Homo sapiens, U-251, 48 h; remark: listed apart in the source
Description: Cytotoxicity against human TMZ-resistant U251 cells assessed as inhibition of cell growth incubated for 48 hrs by MTT assay

Mus musculus [15] = experiment: In vivo inhibition of MAO-A in mouse xenografted with mouse GL26 cells as decrease in MAO activity in brain at 10 mg/kg by radiometric analysis; format: functional, organism-based
[16] = Toxicity in mouse bearing intracranial tumor assessed as last day of survival at 5 mg/kg, ip in presence of SAHA for 10 days (Rvb=16 days); format: organism-based; details: in vivo, 240 h, time 10 day

With C#CCN(C)CCCOc1ccc(Cl)cc1Cl [CLORGILINE] the Survival [1] was 13.8 days, the IC50 [2] was 169 µM and the MST [3] was 17.25 days. For the same molecule, the IC50 (U-251 [4]) was 175 µM, the MST [5] was 14.4 days and the inhibition at 1 µM [6] was < 25%. The MST [7] was 13.8 days, the Activity (Mus musculus [8]) was “Active” and the Survival [9] was 18 days. The MST [10] was 11.75 days, the Survival [11] was 19 days and the Survival [12] was 15 days. For the same molecule, the Survival [13] was 17 days, the IC50 (U-251 [14]) was 136 µM and the Activity (Mus musculus [15]) was “Active”. It also gave a Survival [16] of 14 days.
